Experimental data: publication PMC5749289, “Cytotoxicity Study of Cyclopentapeptide Analogues of Marine Natural Product Galaxamide towards Human Breast Cancer Cells” (Oxidative Medicine and Cellular Longevity, 2017)
≈ marks a conversion by molar mass, not a printed value. Where a SMILES comes first, the peptide text is derived from it.

How the values were obtained:
[1] = system: normal human umbilical vein endothelial cell line (HUVECs); format: cell-based; settings: 48 h
Method: (§1) Human hepatocellular carcinoma HepG2, human breast carcinoma MCF-7, human epitheloid cervix carcinoma HeLa, human breast carcinoma MB-MDA-231 cell lines, and a normal human umbilical vein endothelial cell line (HUVECs) were obtained from the China Cell Bank of the Institute of Biochemistry and were cultured in a DMEM culture medium (DMEM, Corning, NY, USA) containing 10% fetal bovine serum (FBS, Hyclone, Logan, UT, USA), 1% penicillin-streptomycin, and an antifungal agent in a 5% CO2-humidified atmosphere at 37°C. The culture medium was replaced once in a day. Trypsin digestion method was adopted for cell propagation. Upon reaching 80–90% confluence, the cells were rinsed twice with PBS. A certain amount of 0.25% trypsin digestion solution was then added and maintained for 3–5 min at 37°C. Afterward, DMEM culture medium containing 10% fetal bovine serum was added to terminate the digestion. The cells were then blown well to form single-cell suspensions.
(§2) The cell viability was determined by measuring the ability of cells to transform MTT (3-(4,5-dimethylthiazol-2-yl)-2,5-diphenyltetrazolium bromide) (GENView, Houston, TX, USA) to a purple formazan dye. The cells were seeded in 96-well cell culture plates at 2.5 × 10^3 cells/well for 24 h. The cells were then incubated with galaxamide and its analogues for 48 h. After incubation, 20 μL/well of MTT solution (5 mg/mL phosphate buffered saline) was added and incubated for 5 h. The medium was aspirated and replaced with 100 μL/well of DMSO to dissolve the formazan salt. The color intensity of the formazan solution, which reflects the cell growth condition, was measured at 570 nm using a microplate spectrophotometer (SpectroAma™ 250, Winooski, VT, USA).

[2] = system: human epitheloid cervix carcinoma HeLa; assay: cells; format: cell-based; settings: 48 h
Method: as §1, §2

[3] = system: human breast carcinoma MB-MDA-231; assay: cells; format: cell-based; settings: 48 h
Method: as §1, §2

[4] = system: human hepatocellular carcinoma HepG2; assay: cells; format: cell-based; settings: 48 h
Method: as §1, §2

[5] = system: human breast carcinoma MCF-7; assay: cells; format: cell-based
Method: as §1, §2

MCF-7 cells [6] = assay: Annexin V-FITC/PI apoptosis, flow cytometry; format: cell-based, human; settings: MCF-7, 2.5, 5 and 10 μg/mL, 48 h
Method: The apoptotic cells were quantified using an Annexin V-FITC (fluorescein isothiocyanate) (Sigma-Aldrich, St. Louis, MO, USA) cell apoptosis assay kit according to the instruction provided with the kit. In brief, about 1.5 × 10^5 cells were plated in 6-well plates and treated with galaxamide and representative compound (0, 2.5, 5, and 10 μg/mL) for 48 h. The cells were resuspended in […] binding buffer. Afterwards, […] was added and then incubated in darkness at room temperature for 10 min. The cells were again resuspended in […] binding buffer and stained with […] (propidium iodide). The prepared cells were then analyzed using a flow cytometry (Coulter Epics Elite, Miami, FL, USA). The cells in the FITC-positive and PI-negative fractions were regarded as apoptotic cells.

MCF-7 cells [7] = assay: Mitochondrial membrane potential, JC-1 staining, flow cytometry; format: cell-based, human; settings: MCF-7, 2.5, 5.0 and 10.0 μg/mL, 48 h
Method: The cell suspension (2 mL) with a concentration of 1 × 10^5 cells/mL was inoculated per well in 6-well plates for 12 h. After 48 h of incubation with galaxamide and representative compound at the concentration of 0, 2.5, 5, and 10 μg/mL, the supernatant was aspirated and the cells were washed twice with PBS and digested with 0.25% trypsin. The cells were suspended by pipetting, followed by centrifugation (1000 rpm, 5 min). The supernatant was aspirated and the cells were washed with PBS and centrifuged again to obtain a cell pellet. The cells were resuspended by adding and thoroughly mixing 500 μL of PBS in a microcentrifuge tube. Finally, the samples were stained with JC-1 (5,5′,6,6′-tetrachloro-1,1′,3,3′-tetraethylbenzimi-dazolylcarbocyanine iodide) and incubated in darkness at 37°C for 15 min. After the treatment, the cells were detected by flow cytometry.

MCF-7 cells [8] = assay: Cell cycle analysis by PI staining, flow cytometry; format: cell-based, human; settings: MCF-7, 2.5, 5.0 and 10.0 μg/mL, 48 h
Method: MCF-7 cells with the density of about 1.5 × 10^5 were incubated with galaxamide and representative analogue (0, 2.5, 5, and 10 μg/mL) for 48 h. Afterwards, collected cells were washed twice with PBS and centrifugation (1000 rpm, 5 min), then fixed using 70% ethanol for 12 h at 4°C. Ethanol was removed by centrifugation (2000 rpm, 5 min), and the cells were washed twice with PBS. Cells were then resuspended in […] and kept at 37°C for 15 min. The cell cycle was analyzed by flow cytometry measuring the amount of PI-labeled DNA in fixed cells.

MCF-7 cells [9] = assay: Intracellular ROS assay, DCFH-DA, flow cytometry; format: cell-based, human; settings: MCF-7, 2.5, 5.0 and 10.0 μg/mL, 48 h
Method: Two milliliters of cell suspension with a cell concentration of 1 × 10^5 cells/mL was inoculated per well in 6-well plates. After synchronization, the cells were incubated with galaxamide and representative analogue (0, 2.5, 5, and 10 μg/mL) for 48 h. Afterwards, the supernatant was aspirated and the cells were washed twice with PBS and digested with 0.25% trypsin. Then, DMEM supplemented with 10% fetal bovine serum was added to terminate digestion. The cells were suspended by pipetting, followed by centrifugation (1000 rpm, 5 min). The supernatant was aspirated and the cells were washed once with PBS and centrifuged again to obtain a cell pellet. The cells were resuspended by adding and thoroughly mixing […] in a microcentrifuge tube. The samples were then stained with DCFH-DA ([…]) and analyzed by flow cytometry.

[10] = from Table 1 IC50 values (fits MCF-7)

Compound	IC50 (μg/mL) values in various cell lines, HUVECs [1]	IC50 (μg/mL) values in various cell lines, HeLa [2]	IC50 (μg/mL) values in various cell lines, MD-MBA-231 [3]	IC50 (μg/mL) values in various cell lines, HepG2 [4]	IC50 (μg/mL) values in various cell lines, MCF-7 ([5]; 48 h)	JC-1 fluorescence ratio (red/green), MMP (MCF-7 cells [7])	intracellular ROS (MCF-7 cells [9])	further results
CC(C)C[C@@H]1NC(=O)[C@H](CC(C)C)N(C)C(=O)[C@H](Cc2ccccc2)NC(=O)[C@H](CC(C)C)N(C)C(=O)[C@H](CC(C)C)NC1=O [Compound 1, cyclo(Phe-N-Me-Leu-Leu-Leu-N-Me-Leu)]	>40 µg/mL	13.22 ± 1.12 µg/mL (≈ 21.1 µM)	5.83 ± 0.45 µg/mL (≈ 9.29 µM)	6.25 ± 1.03 µg/mL (≈ 9.95 µM)	4.76 ± 1.36 µg/mL (≈ 7.58 µM)			
CC(C)C[C@@H]1NC(=O)[C@H](CC(C)C)N(C)C(=O)[C@H](Cc2ccc3ccccc3c2)NC(=O)[C@H](CC(C)C)N(C)C(=O)[C@H](CC(C)C)NC1=O [Compound 2, cyclo(Nal-N-Me-Leu-Leu-Leu-N-Me-Leu)] (HELM PEPTIDE1{[O=C([C@H](Cc1ccc2ccccc2c1)N[*:1])[*:2]].[meL].L.L.[meL]}$PEPTIDE1,PEPTIDE1,1:R1-5:R2$$$V2.0)	>40 µg/mL		4.48 ± 2.24 µg/mL (≈ 6.61 µM)	8.42 ± 1.82 µg/mL (≈ 12.4 µM)	3.16 ± 0.92 µg/mL (≈ 4.66 µM)			
CC(C)C[C@@H]1NC(=O)[C@H](CC(C)C)N(C)C(=O)[C@H](Cc2c[nH]c3ccccc23)NC(=O)[C@H](CC(C)C)N(C)C(=O)[C@H](CC(C)C)NC1=O [Compound 3, cyclo(Trp-N-Me-Leu-Leu-Leu-N-Me-Leu)] (HELM PEPTIDE1{L.L.[meL].W.[meL]}$PEPTIDE1,PEPTIDE1,1:R1-5:R2$$$V2.0)	>40 µg/mL	5.32 ± 0.42 µg/mL (≈ 7.98 µM)	3.51 ± 1.32 µg/mL (≈ 5.26 µM)	3.98 ± 0.71 µg/mL (≈ 5.97 µM)	1.72 ± 0.85 µg/mL (≈ 2.58 µM)	reduced dose dependently	induced ROS in a dose-dependent manner	induction of apoptosis (MCF-7 cells [6]): significantly induced the apoptosis of human breast cancer MCF-7 cells in a dose-dependent manner; cytotoxicity relative to parent structure galaxamide [5]: almost sixfold higher cytotoxicity; fold less active than doxorubicin [5, 10]: 3.44 fold; fold more active than anticancer drug DPP [5, 10]: 8.49 fold; cell cycle arrest (MCF-7 cells [8]): induced a significant G1 phase arrest of cell cycle progression in a dose-dependent manner
N.N.[Cl][Pt][Cl] [DPP, reference compound]								IC50 (μg/mL) values in various cell lines, HeLa ([2]; HeLa, MTT, mean ± SD of three experiments): 8.90 ± 0.89 µg/mL; IC50 (μg/mL) values in various cell lines, MD-MBA-231 ([3]; MD-MBA-231, MTT, mean ± SD of three experiments): 13.75 ± 0.56 µg/mL; IC50 (μg/mL) values in various cell lines, HepG2 ([4]; HepG2, MTT, mean ± SD of three experiments): 10.43 ± 1.23 µg/mL; IC50 (μg/mL) values in various cell lines, MCF-7 ([5]; MCF-7, MTT, 48 h, mean ± SD of three experiments): 14.61 ± 2.01 µg/mL
COc1cccc2c1C(=O)c1c(O)c3c(c(O)c1C2=O)C[C@@](O)(C(=O)CO)C[C@@H]3O[C@H]1C[C@H](N)[C@H](O)[C@H](C)O1 [Doxorubicin, reference compound]								IC50 ([2]; Homo sapiens, HeLa, MTT, mean ± SD of three experiments, read-out: IC50 (μg/mL) values in various cell lines, HeLa): 0.32 ± 0.22 µg/mL (≈ 0.589 µM); IC50 ([3]; Homo sapiens, MD-MBA-231, MTT, mean ± SD of three experiments, read-out: IC50 (μg/mL) values in various cell lines, MD-MBA-231): 1.29 ± 0.57 µg/mL (≈ 2.37 µM); IC50 ([4]; Homo sapiens, HepG2, MTT, mean ± SD of three experiments, read-out: IC50 (μg/mL) values in various cell lines, HepG2): 2.27 ± 0.24 µg/mL (≈ 4.18 µM); IC50 ([5]; Homo sapiens, MCF7, MCF-7, MTT, 48 h, mean ± SD of three experiments, read-out: IC50 (μg/mL) values in various cell lines, MCF-7): 0.5 ± 0.48 µg/mL (≈ 0.92 µM)
CC(C)C[C@@H]1NC(=O)[C@H](CC(C)C)N(C)C(=O)[C@H](CC(C)C)NC(=O)[C@H](CC(C)C)N(C)C(=O)[C@H](CC(C)C)NC1=O [Galaxamide, galaxamide] (HELM PEPTIDE1{L.L.[meL].L.[meL]}$PEPTIDE1,PEPTIDE1,1:R1-5:R2$$$V2.0)						reduced dose dependently	induced ROS in a dose-dependent manner	
